Each structure is given as a SMILES string. Converted amounts (≈) assume the structure as drawn. Structures can show the parent of a compound that is named as a salt.

Data set [1] deals with MDA-MB-231. The data set is described as follows: Anticancer activity against human MDA-MB-231 cells assessed as reduction in cell viability measured for 48 hrs by MTT assay. It is filed as functional, cell-based. Particulars: MDA-MB-231, 48 h. In general terms: Tetrazolium assays rely on reduction of a dye to a coloured formazan, in cell work by metabolically active cells.

The subject of data set [2] is MDA-MB-231. Put plainly: Growth inhibition of human MDA-MB-231 cells. The data set is classed as functional.
Data set [3] has as its system MCF7. The data set is described as follows: Antitumor activity against human MCF7 cells xenografted in BALB/c nude mouse assessed as tumor growth inhibition at 30 mg/kg, iv administered for 15 days. The data set is classed as functional. Set-up: scale not given: the % may be the effect or the level left. Particulars: time 15 day. (In general: A xenograft is tissue or cells of one species grown in another, often human tumour cells in immunodeficient mice.)

A short description of data set [4]: Toxicity in mouse assessed as lethal dose. Particulars: in vivo.
Data set [5] deals with K562. Put plainly: Antiproliferative activity against human K562 cells assessed as reduction in cell viability after 72 hrs by MTT assay. It is filed as functional, cell-based. Particulars: K562, 72 h.
Data set [6] concerns the target Epidermal growth factor receptor (Homo sapiens, UniProt P00533). The data set is described as follows: Inhibition of EGFR (unknown origin) using TK as substrate incubated for 30 mins by HTRF assay.
The test system of data set [7] is MCF7. The data set is described as follows: Antiproliferative activity against human MCF7 cells assessed as reduction in cell viability incubated for 48 hrs by MTT assay. Particulars: MCF7, 48 h. The data set is classed as functional, cell-based.
Data set [8] has as its system PC-3. Put plainly: Antiproliferative activity against human PC-3 cells assessed as reduction in cell viability incubated for 24 hrs by MTT assay. It is filed as functional, cell-based. Particulars: PC-3, 24 h.
Data set [9] deals with DU-145. Put plainly: Antiproliferative activity against human DU-145 cells assessed as reduction in cell viability by MTT assay. It is filed as functional, cell-based.
The subject of data set [10] is HepG2. Put plainly: Antiproliferative activity against human HepG2 cells assessed as reduction in cell viability after 24 hrs by MTT assay. The data set is classed as functional, cell-based. Particulars: HepG2, 24 h.
Data set [11] deals with MCF7. Put plainly: Anticancer activity against human MCF7 cells assessed as inhibition of cell growth incubated for 24 hrs by MTT assay. Particulars: MCF7, 24 h. The data set is classed as functional, cell-based.
Data set [12] deals with PC-3. Put plainly: Anticancer activity against human PC-3 cells assessed as inhibition of cell growth incubated for 24 hrs by MTT assay. The data set is classed as functional, cell-based. Particulars: PC-3, 24 h.
Data set [13] deals with 4T1. The data set is described as follows: Cytotoxicity against mouse 4T1 cells assessed as inhibition of cell proliferation incubated for 72 hrs by MTT assay. It is filed as functional, cell-based. Particulars: 4T1, 72 h.
The test system of data set [14] is Huh-7. The data set is described as follows: Antiproliferative activity against human Huh-7 cells assessed as reduction in cell growth. The data set is classed as functional, cell-based.
Data set [15] concerns the target Heat shock protein HSP90 (Homo sapiens, UniProt P07900+P08238). Put plainly: Inhibition of HSP90 (unknown origin) ATPase activity. The data set is classed as protein assay.
Data set [16] has as its target Poly [ADP-ribose] polymerase 1 (Homo sapiens, UniProt P09874). The data set is described as follows: Inhibition of PARP-1 (unknown origin).
In data set [17] the test system is MCF7. The data set is described as follows: Growth inhibition of human MCF7 cells incubated fro 48 hrs by SRB assay. It is filed as functional. Background: In SRB staining, fixed cells bind dye roughly in proportion to their protein.
The test system of data set [18] is PC-3. Put plainly: Growth inhibition of human PC-3 cells measured for 48 hrs by SRB assay. The data set is classed as functional.

Sequence of Poly [ADP-ribose] polymerase 1 (P09874 whole entry): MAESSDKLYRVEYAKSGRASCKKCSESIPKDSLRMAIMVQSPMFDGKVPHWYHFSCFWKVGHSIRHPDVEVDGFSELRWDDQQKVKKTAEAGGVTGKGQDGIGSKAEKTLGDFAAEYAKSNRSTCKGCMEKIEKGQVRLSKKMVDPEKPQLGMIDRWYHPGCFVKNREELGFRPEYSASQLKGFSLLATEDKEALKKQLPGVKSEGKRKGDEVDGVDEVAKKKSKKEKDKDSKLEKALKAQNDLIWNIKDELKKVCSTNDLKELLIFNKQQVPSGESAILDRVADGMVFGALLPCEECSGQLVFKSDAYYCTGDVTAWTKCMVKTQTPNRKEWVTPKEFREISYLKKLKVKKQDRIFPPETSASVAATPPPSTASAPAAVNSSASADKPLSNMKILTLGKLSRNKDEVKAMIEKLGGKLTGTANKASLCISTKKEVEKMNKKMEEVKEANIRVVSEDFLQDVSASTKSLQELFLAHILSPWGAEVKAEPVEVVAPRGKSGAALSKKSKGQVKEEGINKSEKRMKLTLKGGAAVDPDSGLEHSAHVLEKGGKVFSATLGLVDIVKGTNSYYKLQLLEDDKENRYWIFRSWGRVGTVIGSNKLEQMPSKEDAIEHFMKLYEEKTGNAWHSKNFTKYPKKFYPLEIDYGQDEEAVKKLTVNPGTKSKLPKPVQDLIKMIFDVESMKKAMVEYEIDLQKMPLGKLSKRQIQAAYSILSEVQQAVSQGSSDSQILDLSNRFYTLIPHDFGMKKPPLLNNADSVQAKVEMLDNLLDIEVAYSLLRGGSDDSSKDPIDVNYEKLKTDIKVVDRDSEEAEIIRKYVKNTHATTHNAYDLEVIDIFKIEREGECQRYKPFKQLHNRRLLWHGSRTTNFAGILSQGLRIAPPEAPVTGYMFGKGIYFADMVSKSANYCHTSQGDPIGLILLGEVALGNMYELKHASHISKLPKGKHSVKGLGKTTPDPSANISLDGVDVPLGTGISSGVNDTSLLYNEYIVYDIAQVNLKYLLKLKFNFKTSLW
Sequence of Epidermal growth factor receptor (P00533 whole entry): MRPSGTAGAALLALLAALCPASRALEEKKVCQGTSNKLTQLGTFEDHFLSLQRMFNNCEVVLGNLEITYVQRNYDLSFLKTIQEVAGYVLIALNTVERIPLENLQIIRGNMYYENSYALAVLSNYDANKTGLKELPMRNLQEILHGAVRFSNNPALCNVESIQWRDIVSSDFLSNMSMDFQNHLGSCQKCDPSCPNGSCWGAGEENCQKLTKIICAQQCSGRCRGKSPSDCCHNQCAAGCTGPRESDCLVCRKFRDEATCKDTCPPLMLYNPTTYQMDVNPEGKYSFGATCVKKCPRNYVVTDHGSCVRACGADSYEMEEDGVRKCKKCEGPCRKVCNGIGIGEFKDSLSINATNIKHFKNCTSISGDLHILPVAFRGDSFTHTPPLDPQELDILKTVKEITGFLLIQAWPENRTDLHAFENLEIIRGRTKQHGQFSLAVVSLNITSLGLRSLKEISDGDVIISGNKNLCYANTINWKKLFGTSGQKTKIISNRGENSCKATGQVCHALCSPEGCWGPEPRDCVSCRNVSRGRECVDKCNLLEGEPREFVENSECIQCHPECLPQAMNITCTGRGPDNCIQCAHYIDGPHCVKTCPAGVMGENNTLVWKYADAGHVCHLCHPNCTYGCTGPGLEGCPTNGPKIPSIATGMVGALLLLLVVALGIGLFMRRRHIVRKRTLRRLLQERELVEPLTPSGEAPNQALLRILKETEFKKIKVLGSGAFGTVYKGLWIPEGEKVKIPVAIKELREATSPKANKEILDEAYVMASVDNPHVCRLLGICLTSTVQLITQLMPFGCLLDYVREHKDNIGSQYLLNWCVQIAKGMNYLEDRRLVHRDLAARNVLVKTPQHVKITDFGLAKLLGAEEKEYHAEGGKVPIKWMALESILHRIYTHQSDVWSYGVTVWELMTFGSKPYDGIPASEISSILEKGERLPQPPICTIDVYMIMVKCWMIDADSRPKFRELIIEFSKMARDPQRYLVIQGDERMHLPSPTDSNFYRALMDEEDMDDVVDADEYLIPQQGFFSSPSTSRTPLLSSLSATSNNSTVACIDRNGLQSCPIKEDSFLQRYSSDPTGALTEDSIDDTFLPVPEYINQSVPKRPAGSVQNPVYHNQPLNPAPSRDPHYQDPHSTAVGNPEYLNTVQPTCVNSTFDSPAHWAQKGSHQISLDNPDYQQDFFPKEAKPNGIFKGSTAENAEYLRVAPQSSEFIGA

As a reminder, the IC50 is the concentration that inhibits the measured activity by half. Broadly, the GI50 is the concentration at which growth is held to half of that of the control. In the case of `CCc1cc(-c2oncc2-c2ccc(OC)cc2)c(O)cc1OC`, the IC50 in data set [1] worked out at 100 nM. The same compound gave a GI50 in [2] of 25000 nM.

With `CC(=O)c1c(O)c(C)c(O)c2c1OC1=Cc3onc(C)c3C(=O)[C@@]12C`, in data set [3], the Activity was 80%.

As a reminder, the LD50 is the dose at which mortality reaches 50%. Regarding `Cc1cc(C[C@@H]2C[C@H]3C(=O)N(C)C4(C[C@H](C)CC[C@H]4C(C)C)N3O2)c(O)c(-n2nc3ccccc3n2)c1` (stereo partly drawn), the LD50 in data set [4] turned out to be 1000 mg/kg.

As to `Cc1noc(C)c1-c1cc(Cc2n[nH]c(=O)c3ccccc23)cc(NC(=O)c2ccccc2C(F)(F)F)c1`, in data set [4], the LD50 stood at 500 mg/kg.

In the case of `Cc1onc([C@@H]2CN(C)C3(C(=O)c4ccccc4C3=O)[C@@]23C(=O)N(C)c2cc(Br)ccc23)c1[N+](=O)[O-]`, the IC50 in data set [5] was determined as 20300 nM.

Take `COc1c(Cl)cc(-c2noc(-c3cn(Cc4cc(-c5cc(Cl)cc(Cl)c5)no4)c4ccccc34)n2)cc1Cl`: the IC50 was 200 nM in [6] and 2160 nM in [7].

For the compound `COc1cc(-c2nnc(-c3cncc(-c4cc(-c5nccs5)on4)c3)o2)cc(OC)c1OC`, the IC50 in data set [8] amounted to 10 nM.

For `COc1ccc(/C=C/C(=O)c2ccno2)c(F)c1OC`, the half-inhibitory concentration (IC50) in data set [9] stood at 5 µg/mL (≈ 18 µM).

As for `Cc1ccccc1COc1ccc(-c2noc(C)c2-c2ccc(Cl)cc2)cc1`, the IC50 in data set [10] was 770 nM.

For `COc1ccc(-c2noc(-c3cccs3)c2C(F)(F)F)cc1OC`, the IC50 in data set [11], in data set [12] and in [13] was 2630 nM each time.

For `COc1ccc(-c2nnc(-c3cncc(-c4cc(-c5nccs5)on4)c3)o2)cc1`, the half-inhibitory concentration (IC50) in [8] amounted to 10 nM.

As for `COc1cc(NC(=O)c2cc(-c3c[nH]c4ccccc34)no2)cc(OC)c1OC`, the IC50 in data set [14] worked out at 700 nM.

`COc1ccc(-c2noc(NC(=O)c3ccc(F)c(F)c3)c2C#N)c(OC)c1` displayed an IC50 in data set [15] of 14000 nM.

Consider `c1csc(-c2cc(-c3cncc(-c4nnc(-c5nccs5)o4)c3)no2)n1`, for which the IC50 in data set [8] came out at 10 nM.

`c1cc(-c2nnc(-c3cncc(-c4cc(-c5nccs5)on4)c3)o2)ccn1`: the half-maximal inhibitory concentration (IC50) in [8] is 10 nM.

Consider `CCCCCCCCCCc1cc(CCC(N)(CO)CO)on1`, for which, in [16], it took 7500 nM to reach half-maximal inhibition (IC50).

In the case of `COc1cccc2c1C(=O)c1c(O)c3c(c(O)c1C2=O)C[C@@](O)(C(=O)CO)C[C@@H]3O[C@H]1C[C@H](N)[C@H](O)[C@H](C)O1` [DOXORUBICIN HYDROCHLORIDE], the concentration for 50% growth inhibition (GI50) in data set [17] and in data set [18] was 1000 nM throughout.

Compound `c1cnoc1` [ISOXAZOLE] came in with an IC50 in data set [16] of 10000 nM.
